Reference: ChEMBL document CHEMBL1201862, “PubChem BioAssay data set” (2004)
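Values below derive from 48-hour exposures of cells grown in 96-well plates, with endpoints linearly interpolated between the two concentrations bracketing the appropriate inhibition level. Here, GI50 denotes the concentration required for 50% inhibition of growth.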 Calls of active or inactive are those of the source. Rule as the data show it: active = GI50 up to about 1.1 µM and inactive = higher.

Key:
Experiment in all cases: inhibition of tumour cell growth, NCI panel, 48 h
[1] = tested on: HT-29
[2] = tested on: RXF 393
[3] = tested on: HOP-62
[4] = tested on: SF-539
[5] = tested on: SF-268
[6] = tested on: SK-OV-3
[7] = tested on: UACC-257
[8] = tested on: TK-10
[9] = tested on: A549
[10] = tested on: SNB-19
[11] = tested on: EKVX
[12] = tested on: T47D
[13] = tested on: MDA-MB-435
[14] = tested on: SNB-75
[15] = tested on: SN12C
[16] = tested on: NCI-H23
[17] = tested on: OVCAR-5
[18] = tested on: CAKI-1
[19] = tested on: RPMI-8226
[20] = tested on: OVCAR-3
[21] = tested on: ACHN
[22] = tested on: SW-620
[23] = tested on: OVCAR-4
[24] = tested on: BT-549
[25] = tested on: DU-145
[26] = tested on: NCI/ADR-RES
[27] = tested on: SK-MEL-5
[28] = tested on: U-251
[29] = tested on: SK-MEL-2
[30] = tested on: Hs-578T
[31] = tested on: COLO 205
[32] = tested on: HCT-15
[33] = tested on: NCI-H522
[34] = tested on: MDA-MB-231
[35] = tested on: HCC 2998
[36] = tested on: HOP-92
[37] = tested on: UACC-62
[38] = tested on: A498
[39] = tested on: SF-295
[40] = tested on: UO-31
[41] = tested on: NCI-H226
[42] = tested on: MDA-N
[43] = tested on: MCF7
[44] = tested on: NCI-H460
[45] = tested on: M14
[46] = tested on: MOLT-4
[47] = tested on: KM12
[48] = tested on: IGROV-1
[49] = tested on: SK-MEL-28
[50] = tested on: PC-3
[51] = tested on: 786-0
[52] = tested on: K562
[53] = tested on: Malme-3M
[54] = tested on: HCT-116
[55] = tested on: OVCAR-8
[56] = tested on: SR
[57] = tested on: HL-60
[58] = tested on: LOX IMVI
[59] = tested on: CCRF-CEM

Oc1c(OCc2nnc(CCCCCCCCc3nnc(COc4ccc5ccccc5c4O)n3Nc3ccccc3)n2Nc2ccccc2)ccc2ccccc12
GI50 [1]: 8.28 µM (inactive)
GI50 [2]: 16.2 µM (inactive)
GI50 [3]: 0.261 µM (active)
GI50 [4]: 3.98 µM (inactive)
GI50 [5]: 10.7 µM (inactive)
GI50 [6]: 9.77 µM (inactive)
GI50 [7]: 4.21 µM (inactive)
GI50 [8]: 11.1 µM (inactive)
GI50 [9]: 6.46 µM (inactive)
GI50 [10]: 11.8 µM (inactive)
GI50 [11]: 11.6 µM (inactive)
GI50 [12]: 6.43 µM (inactive)
GI50 [13]: 2.46 µM (inactive)
GI50 [14]: 17.5 µM (inactive)
GI50 [15]: 13.9 µM (inactive)
GI50 [16]: 8.69 µM (inactive)
GI50 [17]: 5.47 µM (inactive)
GI50 [18]: 0.676 µM (active)
GI50 [19]: 0.682 µM (active)
GI50 [20]: 8.02 µM (inactive)
GI50 [21]: 0.845 µM (active)
GI50 [22]: 10.4 µM (inactive)
GI50 [23]: 5.42 µM (inactive)
GI50 [24]: 8.73 µM (inactive)
GI50 [25]: 14.6 µM (inactive)
GI50 [26]: 11 µM (inactive)
GI50 [27]: 1.29 µM (inactive)
GI50 [28]: 12 µM (inactive)
GI50 [29]: 9.12 µM (inactive)
GI50 [30]: 8.17 µM (inactive)
GI50 [31]: 0.558 µM (active)
GI50 [32]: 11.4 µM
GI50 [33]: 7.08 µM (inactive)
GI50 [34]: 8.95 µM (inactive)
GI50 [35]: 5.26 µM (inactive)
GI50 [36]: 15.7 µM (inactive)
GI50 [37]: 0.671 µM (active)
GI50 [38]: 16.1 µM (inactive)
GI50 [39]: 0.301 µM (active)
GI50 [40]: 2.58 µM (inactive)
GI50 [41]: 7.55 µM (inactive)
GI50 [42]: 1.62 µM (inactive)
GI50 [43]: 3.52 µM (inactive)
GI50 [44]: 1.26 µM (inactive)
GI50 [45]: 1.97 µM (inactive)
GI50 [46]: 12.7 µM (inactive)
GI50 [47]: 3 µM (inactive)
GI50 [48]: 12 µM (inactive)
GI50 [49]: 2.07 µM (inactive)
GI50 [50]: 2.1 µM (inactive)
GI50 [51]: 13.3 µM (inactive)
GI50 [52]: 0.515 µM (active)
GI50 [53]: 9.33 µM (inactive)
GI50 [54]: 9.2 µM (inactive)
GI50 [55]: 11.2 µM (inactive)

C1=CC2(C=CC13O[C@H](C1CCCCC1)[C@@H](C1CCCCC1)O3)O[C@H](C1CCCCC1)[C@@H](C1CCCCC1)O2
GI50 [1]: > 50 µM (inactive)
GI50 [2]: > 50 µM (inactive)
GI50 [3]: > 50 µM (inactive)
GI50 [4]: > 50 µM (inactive)
GI50 [56]: > 50 µM (inactive)
GI50 [5]: > 50 µM (inactive)
GI50 [57]: > 50 µM (inactive)
GI50 [6]: > 50 µM (inactive)
GI50 [7]: > 50 µM (inactive)
GI50 [8]: > 50 µM (inactive)
GI50 [9]: > 50 µM (inactive)
GI50 [10]: > 50 µM (inactive)
GI50 [12]: > 50 µM (inactive)
GI50 [13]: > 50 µM (inactive)
GI50 [14]: > 50 µM (inactive)
GI50 [15]: > 50 µM (inactive)
GI50 [16]: > 50 µM (inactive)
GI50 [58]: > 50 µM (inactive)
GI50 [17]: > 50 µM (inactive)
GI50 [18]: > 50 µM (inactive)
GI50 [19]: 23.2 µM (inactive)
GI50 [20]: > 50 µM (inactive)
GI50 [21]: > 50 µM (inactive)
GI50 [22]: > 50 µM (inactive)
GI50 [23]: > 50 µM (inactive)
GI50 [24]: > 50 µM (inactive)
GI50 [25]: > 50 µM (inactive)
GI50 [26]: > 50 µM (inactive)
GI50 [27]: > 50 µM (inactive)
GI50 [28]: > 50 µM (inactive)
GI50 [29]: > 50 µM (inactive)
GI50 [30]: > 50 µM (inactive)
GI50 [31]: > 50 µM (inactive)
GI50 [32]: > 50 µM
GI50 [34]: > 50 µM (inactive)
GI50 [37]: > 50 µM (inactive)
GI50 [38]: > 50 µM (inactive)
GI50 [39]: > 50 µM (inactive)
GI50 [40]: > 50 µM (inactive)
GI50 [41]: > 50 µM (inactive)
GI50 [42]: > 50 µM (inactive)
GI50 [43]: > 50 µM (inactive)
GI50 [44]: > 50 µM (inactive)
GI50 [45]: > 50 µM (inactive)
GI50 [46]: > 50 µM (inactive)
GI50 [47]: > 50 µM (inactive)
GI50 [48]: > 50 µM (inactive)
GI50 [49]: > 50 µM (inactive)
GI50 [50]: > 50 µM (inactive)
GI50 [51]: > 50 µM (inactive)
GI50 [52]: > 50 µM (inactive)
GI50 [53]: > 50 µM (inactive)
GI50 [54]: > 50 µM (inactive)
GI50 [55]: > 50 µM (inactive)

COC(=O)c1sc(=S)sc1SCc1ccc(CSc2sc(=S)sc2C(=O)OC)cc1
GI50 [1]: > 100 µM (inactive)
GI50 [2]: > 100 µM (inactive)
GI50 [3]: > 100 µM (inactive)
GI50 [5]: > 100 µM (inactive)
GI50 [6]: > 100 µM (inactive)
GI50 [7]: > 100 µM (inactive)
GI50 [8]: > 100 µM (inactive)
GI50 [9]: > 100 µM (inactive)
GI50 [10]: > 100 µM (inactive)
GI50 [11]: > 100 µM (inactive)
GI50 [12]: > 100 µM (inactive)
GI50 [13]: > 100 µM (inactive)
GI50 [14]: > 100 µM (inactive)
GI50 [15]: > 100 µM (inactive)
GI50 [16]: > 100 µM (inactive)
GI50 [58]: > 100 µM (inactive)
GI50 [17]: > 100 µM (inactive)
GI50 [18]: > 100 µM (inactive)
GI50 [20]: > 100 µM (inactive)
GI50 [21]: > 100 µM (inactive)
GI50 [22]: > 100 µM (inactive)
GI50 [23]: > 100 µM (inactive)
GI50 [24]: > 100 µM (inactive)
GI50 [25]: > 100 µM (inactive)
GI50 [26]: > 100 µM (inactive)
GI50 [27]: > 100 µM (inactive)
GI50 [28]: > 100 µM (inactive)
GI50 [29]: > 100 µM (inactive)
GI50 [30]: > 100 µM (inactive)
GI50 [31]: > 100 µM (inactive)
GI50 [32]: > 100 µM
GI50 [59]: > 100 µM (inactive)
GI50 [33]: > 100 µM (inactive)
GI50 [34]: > 100 µM (inactive)
GI50 [35]: > 100 µM (inactive)
GI50 [36]: > 100 µM (inactive)
GI50 [37]: > 100 µM (inactive)
GI50 [38]: > 100 µM (inactive)
GI50 [39]: > 100 µM (inactive)
GI50 [40]: > 100 µM (inactive)
GI50 [41]: > 100 µM (inactive)
GI50 [42]: > 100 µM (inactive)
GI50 [43]: > 100 µM (inactive)
GI50 [44]: > 100 µM (inactive)
GI50 [45]: > 100 µM (inactive)
GI50 [46]: > 100 µM (inactive)
GI50 [47]: > 100 µM (inactive)
GI50 [48]: > 100 µM (inactive)
GI50 [49]: > 100 µM (inactive)
GI50 [50]: > 100 µM (inactive)
GI50 [51]: > 100 µM (inactive)
GI50 [52]: > 100 µM (inactive)
GI50 [53]: > 100 µM (inactive)
GI50 [54]: > 100 µM (inactive)
GI50 [55]: > 100 µM (inactive)
